Measurements published in patent US11597954B2, “Bioproduction of phenethyl alcohol, aldehyde, acid, amine, and related compounds” (National University of Singapore, priority 2017, dated 2023).

What was measured:
[1] = test system: E. coli (R-PAL-PAD_E-SMO-SOI-PAR); test: Apparent kinetics of the whole-cells (Lineweaver-Burk plot) with and without 2-PE; type: cell-based; settings: competitive inhibition; 3 mM 2-PE, 15 minutes, 5 g cdw/L cells, 10 mM L-phenylalanine, 30° C.
Method: (§1) The reaction for FIG. 17b was done at 30° C. and 250 rpm in 2 ml KP buffer (100 mM, pH 8.0) containing 0.5% (w/v) glucose, 5 g cdw/L of cell suspension, 10 mM L-phenylalanine, and (•) 0 or (▴) 3 mM of 2-PE in the aqueous phase, with n-hexadecane in the organic phase.
To further investigate the product inhibition, the apparent kinetics of the whole-cells was measured and determined using Lineweaver-Burk plot. 2-PE concentration of 3 mM was used for 15 minutes in order to determine the kinetic, thus the product toxicity towards the cells could be neglected.

cells = settings: literature; cited from earlier work
[2] = Partition coefficient in aqueous-organic biphasic system; type: physicochemical; settings: for Partition coefficient K value: phase ratio 1:1
Method: FIGS. 18a and 18b show (FIG. 18a) partition coefficient of 2-PE in aqueous-organic biphasic system. Partition coefficient measured at a phase ratio of 1:1. KP buffer (100 mM, pH 8.0) was utilized as the aqueous buffer. All data were obtained from the mean values of triplicate with standard deviations through HPLC analysis. K value for L-phenylalanine was observed as ˜0 in all the respective organic solvents mentioned and (FIG. 18b) screening of 7 different organic solvent for the one-pot production of 2-PE from L-phenylalanine with the KP buffer (100 mM, pH 8.0) containing 0.5% glucose and 50 mM L-phenylalanine.
In-situ product removal technique via extraction have been conducted to remove the obtained 2-PE from the aqueous phase and make its concentration below the inhibitory level. We investigated different type of organic solvents and ionic liquids to perform the extractive biotransformation for 2-PE production via styrene-derived pathway from L-phenylalanine, starting from the analysis of their partition coefficients in the biphasic system. Product and substrate coefficient partitions in organic and aqueous phase were determined by adding different concentration of 2-PE and L-phenylalanine, respectively, into KP buffer (100 mM, pH 8.0) together with the respective organic solvents. Reaction mixtures were incubated for 1 h (280 rpm, 30° C.).

[3] = test system: E. coli (pRSF-PAL-PAD_pET-SMO-SOI-PAR); type: cell-based
Method: as §1
The product inhibition was investigated by adding different concentration of 2-PE to the cell suspension (10 g cdw/L) of E. coli (pRSF-PAL-PAD_pET-SMO-SOI-PAR) in KP buffer (100 mM, pH 8.0) containing 0.5% glucose in aqueous phase with n-hexadecane as the organic phase, followed by the incubation at 30° C. and 250 rpm for 3 h.
Biotransformation was done in aqueous phase with KP buffer (100 mM, pH 8.0) containing cell suspension (10 g cdw/l), 0.5% glucose, and 50 mM L-phenylalanine as initial substrate while n-hexadecane as the organic phase (250 rpm, 2 h, 30° C.)

In the case of `OCCc1ccccc1` [2-PE, 2-Phenylethanol], the Ki [1] is listed as 4.8 mM, the “Concentration of 2-PE that will inhibit the cells” value (cells) is listed as 2-3 gr/L and the “Partition coefficient K value” ([2]; most of the organic solvents used vs KP buffer (100 mM, pH 8.0)) is listed as greater than 1. The Partition coefficient ([2]; n-hexadecane vs KP buffer (100 mM, pH 8.0), compared with the other organic solvents) was “much lower”, the “2-PE concentration in the aqueous phase that started to inhibit the biotransformation” value ([3]; 3 h pretreatment, then 50 mM L-phenylalanine, 2 h, 30° C.) was “above 30 mM” and the “Toxicity of 2-PE to the cells” value ([3]; cells 10 g cdw/L incubated with 2-PE 3 h, 30° C., KP buffer pH 8.0 / n-hexadecane) was “toxic”. The “Biotransformation activity of cells pretreated with 2-PE” value ([3]; pretreated with 90 mM 2-PE) was “almost no activity”.

In the case of `N[C@@H](Cc1ccccc1)C(=O)O` [L-phenylalanine], the “Partition coefficient K value” ([2]; all the respective organic solvents vs KP buffer (100 mM, pH 8.0)) is reported as roughly 0.
